“Also recorded” adds a separate entry of the source. Where two headings read alike, the source gives them in different places.
Columns and labels:
[1] = tested on: human cytomegalovirus (HCMV), strain AD-169; experiment: Antiviral test (plaque reduction) versus HCMV, strain AD-169, in MRC-5 cells; type: cell-based; settings: for Number of Plaques: average of two wells; for inhibition at 0.0032 µg/mL: Human betaherpesvirus 5, AD169, MRC5, 0.0032 μg/ml; for inhibition at 0.01 µg/mL: Human betaherpesvirus 5, AD169, MRC5, 0.01 μg/ml; for inhibition at 0.032 µg/mL: Human betaherpesvirus 5, AD169, MRC5, 0.032 μg/ml; for inhibition at 0.1 µg/mL: Human betaherpesvirus 5, AD169, MRC5, 0.1 μg/ml; for inhibition at 0.32 µg/mL: Human betaherpesvirus 5, AD169, MRC5, 0.32 μg/ml; for inhibition at 1 µg/mL: Human betaherpesvirus 5, AD169, MRC5, 1.0 μg/ml; for inhibition at 10 µg/mL: Human betaherpesvirus 5, AD169, MRC5, 10 μg/ml; for Activity in initial screening against HCMV in vitro: in words
[2] = tested on: HCMV, strain C8805-37 (DHPG-resistant); experiment: microbe, parasite or virus in culture; type: cell-based, human cytomegalovirus; settings: for inhibition at 10 µg/mL: Human betaherpesvirus 5, MRC5, 96 h, read-out: Percent Inhibition Compared to Controls; for inhibition at 0.01 µg/mL / inhibition at 0.032 µg/mL / inhibition at 0.1 µg/mL / inhibition at 0.32 µg/mL / inhibition at 1 µg/mL / inhibition at 3.2 µg/mL: Human betaherpesvirus 5, MRC5, read-out: Percent Inhibition Compared to Controls
[3] = tested on: murine cytomegalovirus, strain Smith MSGV; experiment: Antiviral test (plaque reduction) versus murine cytomegalovirus, strain Smith MSGV, in 3T3 cells; type: cell-based; settings: Example 8
3T3 cells = settings: mouse
HCMV, strain AD-169 = experiment: Virucidal test versus HCMV, strain AD-169; type: cell-based, human cytomegalovirus; settings: in words
[4] = tested on: human cytomegalovirus (HCMV) strain AD-169; experiment: Antiviral effect of different exposure times, HCMV strain AD-169 (plaque reduction); type: cell-based
[5] = 0.0032 μg/ml, Example 1, DMSO stock
[6] = 0.1 μg/ml, Example 1, DMSO stock
[7] = 0.32 μg/ml, Example 1, DMSO stock
[8] = 1.0 μg/ml, Example 1, DMSO stock
[9] = 3.2 μg/ml, Example 1, DMSO stock
[10] = 10 μg/ml, Example 1, DMSO stock
[11] = Example 2, read-out: Percent Inhibition of Plaque Numbers (Compared to Virus Controls)
[12] = Example 1, DMSO stock, read-out: % Inhibition
[13] = Human betaherpesvirus 5, AD169, MRC5, 3.2 μg/ml, Example 1, DMSO stock, read-out: % Inhibition
[14] = 0.32 μg/ml (second line so printed, r16, below 0.1)
[15] = Example 3, cells exposed 4 days
[16] = 10 μg/ml, Example 2, ethanol stock (protohypericin in DMSO), cells exposed 6 or more days
[17] = statement in words on the plaque reduction results

SMILES: Cc1cc(O)c2c(=O)c3c(O)cc(O)c4c5c(O)cc(O)c6c(=O)c7c(O)cc(C)c8c1c2c(c34)c(c78)c65 [Hypericin, hypericin]
- Number of Plaques [1, 5]: 72
- Number of Plaques [1, 6]: 72
- Number of Plaques [1, 7]: 53
- Number of Plaques [1, 8]: 53
- Number of Plaques [1, 9]: 6
- Number of Plaques [1, 10]: 0
- inhibition at 0.0032 µg/mL ([1]; Example 1, DMSO stock): 9%
- inhibition at 0.01 µg/mL [1, 11]: 0%
- inhibition at 0.032 µg/mL [1, 11]: 0%
- inhibition at 0.1 µg/mL [1, 12]: 9%
- inhibition at 0.1 µg/mL [1, 11]: 0%
- inhibition at 0.32 µg/mL [1, 12]: 33%
- inhibition at 0.32 µg/mL [1, 11]: 0%
- inhibition at 1 µg/mL [1, 12]: 33%
- inhibition at 1 µg/mL [1, 11]: 63%
- inhibition at 3.2 µg/mL [1, 13]: 92%
- inhibition at 10 µg/mL [1, 12]: 100%
- Activity in initial screening against HCMV in vitro [1]: active
- inhibition at 10 µg/mL [2]: 98%
- inhibition at 0.01 µg/mL [2]: 0%
- inhibition at 0.032 µg/mL [2]: 0%
- inhibition at 0.1 µg/mL [2]: 0%
- inhibition at 0.32 µg/mL [2]: 18%
- inhibition at 1 µg/mL [2]: 52%
- inhibition at 3.2 µg/mL [2]: 93%
- % Reduction ([3]; 0.1 μg/ml): 0%
- Number of Plaques ([3]; 0.1 μg/ml): 19
- % Reduction ([3]; 0.32 μg/ml (row r14)): 0%
- Number of Plaques ([3]; 0.32 μg/ml (row r14)): 22
- % Reduction [3, 14]: 0%
- Number of Plaques [3, 14]: 25
- % Reduction ([3]; 1.0 μg/ml): 0%
- Number of Plaques ([3]; 1.0 μg/ml): 19
- % Reduction ([3]; 3.2 μg/ml): 0%
- Number of Plaques ([3]; 3.2 μg/ml): 15
- % Reduction ([3]; 10 μg/ml): 100%
- Number of Plaques ([3]; 10 μg/ml): 0
- CD50 (MRC-5 cells; Example 1, DMSO stock): ≈10 μg/ml
- CD50 (MRC-5 cells; [15]): ˜10 μg/ml
- CD50 (3T3 cells): >10 µg/mL

SMILES: Cc1cc(O)c2c(c1)C(=O)c1cc(O)cc(O)c1C2=O [Emodin, emodin]
- Number of Plaques [1, 5]: 79
- Number of Plaques [1, 6]: 72
- Number of Plaques [1, 7]: 78
- Number of Plaques [1, 8]: 22
- Number of Plaques [1, 9]: 0
- Number of Plaques [1, 10]: 0
- Percent Inhibition of Plaque Numbers (Compared to Virus Controls) [1, 16]: toxic
- inhibition at 0.0032 µg/mL ([1]; Example 1, DMSO stock): 0%
- inhibition at 0.01 µg/mL [1, 11]: 0%
- inhibition at 0.032 µg/mL [1, 11]: 0%
- inhibition at 0.1 µg/mL [1, 12]: 9%
- inhibition at 0.1 µg/mL [1, 11]: 0%
- inhibition at 0.32 µg/mL [1, 12]: 1%
- inhibition at 0.32 µg/mL [1, 11]: 0%
- inhibition at 1 µg/mL [1, 12]: 72%
- inhibition at 1 µg/mL [1, 11]: 39%
- inhibition at 3.2 µg/mL [1, 13]: 100%
- inhibition at 3.2 µg/mL ([1]; Human betaherpesvirus 5, AD169, MRC5, 3.2 μg/ml, Example 2, read-out: Percent Inhibition of Plaque Numbers (Compared to Virus Controls)): 100%
- inhibition at 10 µg/mL [1, 12]: 100%
- Activity against HCMV [1, 17]: show activity
- Activity against HCMV ([1]; statement in words on the plaque reduction results, listed as emodin): anti-HCMV activity
- Activity against DHPG resistant HCMV strain [2]: retain essentially the same activity
- Percent Inhibition Compared to Controls [2]: toxic
- inhibition at 0.01 µg/mL [2]: 0%
- inhibition at 0.032 µg/mL [2]: 0%
- inhibition at 0.1 µg/mL [2]: 0%
- inhibition at 0.32 µg/mL [2]: 0%
- inhibition at 1 µg/mL [2]: 46%
- inhibition at 3.2 µg/mL [2]: 100%
- CD50 (MRC-5 cells; human, 4 days): 3.4 µg/mL

SMILES: Cc1cc(O)c2c(c1)C(C1c3cc(C)cc(O)c3C(=O)c3c(O)cc(O)cc31)c1cc(O)cc(O)c1C2=O (centres unmarked) [Emodin Bianthrone (mixed), emodin bianthrone]
- Percent Inhibition of Plaque Numbers (Compared to Virus Controls) ([1]; 0.01 μg/ml, Example 2): 0%
- Percent Inhibition of Plaque Numbers (Compared to Virus Controls) ([1]; 0.032 μg/ml, Example 2): 0%
- Percent Inhibition of Plaque Numbers (Compared to Virus Controls) ([1]; 0.1 μg/ml, Example 2): 0%
- Percent Inhibition of Plaque Numbers (Compared to Virus Controls) ([1]; 0.32 μg/ml, Example 2): 0%
- Percent Inhibition of Plaque Numbers (Compared to Virus Controls) ([1]; 1.0 μg/ml, Example 2): 100%
- Percent Inhibition of Plaque Numbers (Compared to Virus Controls) ([1]; 3.2 μg/ml, Example 2): toxic
- Percent Inhibition of Plaque Numbers (Compared to Virus Controls) [1, 16]: toxic
- Activity in initial screening against HCMV in vitro [1]: active
- Activity against HCMV [1, 17]: show activity; also recorded: good biological activity
- Activity against DHPG resistant HCMV strain [2]: retain essentially the same activity
- Virucidal activity against HCMV (HCMV, strain AD-169): negligible virucidal activity
- Plaque reduction ([4]; 4 hour exposure to the cells): ~60%
- Exposure time at which complete inhibition of plaques is seen ([4]; concentration chosen to cause 100% plaque reduction on full exposure): 6 h
- Antiviral effect ([4]; only 2 hours of exposure): no effect
- CD50 (MRC-5 cells; Example 2, cells exposed 6 or more days): 1.1 µg/mL
- CD50 (MRC-5 cells; [15]): 1.8 µg/mL
- CD50 (MRC-5 cells; Table 9 summary, two values = two experiments): 1.1 µg/mL
- CD50 (MRC-5 cells; Table 10 summary, DHPG resistant HCMV test): 1.8 µg/mL

SMILES: O=C1c2ccc(O)c(O)c2C(=O)c2c(O)ccc(O)c21 [Quinalizarin, quinalizarin]
- Activity against HCMV [1]: definitely active; also recorded: show activity
- inhibition at 3.2 µg/mL ([1]; Human betaherpesvirus 5, AD169, MRC5, read-out: % Reduction): 100%
- inhibition at 10 µg/mL [2]: 98%
- inhibition at 0.01 µg/mL [2]: 21%
- inhibition at 0.032 µg/mL [2]: 44%
- inhibition at 0.1 µg/mL [2]: 20%
- inhibition at 0.32 µg/mL [2]: 0%
- inhibition at 1 µg/mL [2]: 42%
- inhibition at 3.2 µg/mL [2]: 88%
- CD50 (MRC-5 cells; human, 4 days): >10 µg/mL

Reference: patent US6686393B1, “Pharmaceutical compositions having antiviral activity against human cytomegalovirus” (Murdock International Corporation, priority 1990, dated 2004)
